# Reference: patent US10131652B2, “Pyrimidinyloxy benzene derivatives as herbicides” (E. I. DU PONT DE NEMOURS AND COMPANY, priority 2014, dated 2018)
# Experiments:
# Assay type in all cases: in vivo
# [1] = system: rice (Oryza sativa); test: Test C flooded paddy test plant response; conditions: Flood, 250 g ai/ha; scale of 0 to 100 where 0 is no effect and 100 is complete control; 13 to 15 days
# In short: (§1)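 Water-applied treatment: compounds go directly into floodwater standing 3 cm over the soil of pots holding 2-leaf-stage plants. Depth is kept constant; plants stay in a greenhouse 13 to 15 days before visual comparison with controls on a 0–100 scale.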
# [2] = system: barnyardgrass (Echinochloa crus-galli); test: Test C flooded paddy test plant response; conditions: Flood, 250 g ai/ha; scale of 0 to 100 where 0 is no effect and 100 is complete control; 13 to 15 days
# In short: as §1
# [3] = system: ducksalad (Heteranthera limosa); test: Test C flooded paddy test plant response; conditions: Flood, 250 g ai/ha; scale of 0 to 100 where 0 is no effect and 100 is complete control; 13 to 15 days
# In short: as §1
# [4] = system: small-flower umbrella sedge (Cyperus difformis); test: Test C flooded paddy test plant response; conditions: Flood, 250 g ai/ha; scale of 0 to 100 where 0 is no effect and 100 is complete control; 13 to 15 days
# In short: as §1
# [5] = system: giant foxtail (Setaria faberii); test: Test B pre-/postemergence plant response
# Excerpt: (§2) Seeds of plant species selected from bamyardgrass (Echinochloa crus-galli), kochia (Kochia scoparia), ragweed (common ragweed, Ambrosia elatior), Italian ryegrass (Lolium multiflorum), large (Lg) crabgrass (Digitaria sanguinalis), giant foxtail (Setaria faberii), momingglory (Ipomoea spp.), pigweed (Amaranthus retroflexus), velvetleaf (Abutilon theophrasti), wheat (Triticum aestivum), and corn (Zea mays) were planted into a blend of loam soil and sand and treated preemergence with a directed soil spray using test chemicals formulated in a non-phytotoxic solvent mixture which included a surfactant. At the same time, plants selected from these crop and weed species and also blackgrass (Alopecurus myosuroides), and galium (catchweed bedstraw, Galium aparine) were planted in pots containing the same blend of loam soil and sand and treated with postemergence applications of test chemicals formulated in the same manner. Plants ranged in height from 2 to 10 cm and were in the one- to two-leaf stage for the postemergence treatment. Treated plants and untreated controls were maintained in a greenhouse for approximately 10 days, after which time all treated plants were compared to untreated controls and visually evaluated for injury. Plant response ratings, summarized in Table B, are based on a 0 to 100 scale where 0 is no effect and 100 is complete control. A dash (-) response means no test result.
# [6] = system: corn (Zea mays); test: Test B pre-/postemergence plant response; conditions: 0 to 100 scale, 0 no effect, 100 complete control
# Excerpt: as §2
# [7] = system: pigweed (Amaranthus retroflexus); test: Test B pre-/postemergence plant response
# Excerpt: as §2
# [8] = system: ragweed (common ragweed, Ambrosia elatior); test: Test B pre-/postemergence plant response
# Excerpt: as §2
# [9] = system: wheat (Triticum aestivum); test: Test B pre-/postemergence plant response; conditions: 0 to 100 scale, 0 no effect, 100 complete control
# Excerpt: as §2
# [10] = system: Italian ryegrass (Lolium multiflorum); test: Test B pre-/postemergence plant response
# Excerpt: as §2
# [11] = system: barnyardgrass (Echinochloa crus-galli); test: Test B pre-/postemergence plant response
# Excerpt: as §2
# [12] = system: kochia (Kochia scoparia); test: Test B pre-/postemergence plant response
# Excerpt: as §2
# [13] = system: galium (catchweed bedstraw, Galium aparine); test: Test B postemergence plant response; conditions: 0 to 100 scale, 0 no effect, 100 complete control
# In short: (§3)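 Pots, loam soil + sand; postemergence treatment at 1–2 leaf stage, 2–10 cm; greenhouse ~10 d; visual injury score 0 (none) to 100 (complete control) relative to untreated controls.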
# [14] = system: blackgrass (Alopecurus myosuroides); test: Test B postemergence plant response; conditions: 0 to 100 scale, 0 no effect, 100 complete control
# In short: as §3
# [15] = 31 g ai/ha, Postemergence, 0 to 100 scale, 0 no effect, 100 complete control
# [16] = 31 g ai/ha, Preemergence, 0 to 100 scale where 0 is no effect and 100 is complete control
# [17] = 125 g ai/ha, postemergence, 0 to 100 scale, 0 no effect, 100 complete control
# [18] = Preemergence, 125 g ai/ha, 0 to 100 scale where 0 is no effect and 100 is complete control
Structure (SMILES),Rice plant response rating [1],Barnyardgrass plant response rating [2],Ducksalad plant response rating [3],"Sedge, Umbrella plant response rating [4]","Plant response rating, Foxtail, Giant [5, 15]","Plant response rating, Foxtail, Giant [5, 16]","Plant response rating, Foxtail, Giant [5, 17]","Plant response rating, Foxtail, Giant [5, 18]","Plant response rating, Corn ([6]; 31 g ai/ha, Postemergence)","Plant response rating, Corn ([6]; 125 g ai/ha, postemergence)","Plant response rating, Pigweed [7, 15]","Plant response rating, Pigweed [7, 16]","Plant response rating, Pigweed [7, 17]","Plant response rating, Ragweed [8, 15]","Plant response rating, Ragweed [8, 16]","Plant response rating, Ragweed [8, 17]","Plant response rating, Wheat ([9]; 31 g ai/ha, Postemergence)","Plant response rating, Wheat ([9]; 125 g ai/ha, postemergence)","Plant response rating, Ryegrass, Italian [10, 15]","Plant response rating, Ryegrass, Italian [10, 16]",further results
N#Cc1cccc(Oc2ncc(Cl)cn2)c1-c1ccsc1 [Compound 112],0,0,30,95,10,10,60,70,10,20,30,30,30,20,0,30,0,0,0,0,"Plant response rating, Ryegrass, Italian [10, 17]: 0; Plant response rating, Barnyardgrass [11, 15]: 10; Plant response rating, Barnyardgrass [11, 16]: 10; Plant response rating, Barnyardgrass [11, 17]: 30; Plant response rating, Barnyardgrass [11, 18]: 30; Plant response rating, Kochia [12, 15]: 60; Plant response rating, Kochia [12, 16]: 0; Plant response rating, Kochia [12, 17]: 70; Plant response rating, Kochia [12, 18]: 50; Plant response rating, Galium ([13]; 31 g ai/ha, Postemergence): 30; Plant response rating, Galium ([13]; 125 g ai/ha, postemergence): 50; Plant response rating, Blackgrass ([14]; 31 g ai/ha, Postemergence): 0; Plant response rating, Blackgrass ([14]; 125 g ai/ha, postemergence): 20"
Fc1ccc(Oc2ncc(Cl)cn2)c(-c2cc(C(F)F)on2)c1Br [Compound 114],15,0,75,75,20,10,60,30,30,50,100,70,100,0,0,20,10,20,10,0,"Plant response rating, Ryegrass, Italian [10, 17]: 60; Plant response rating, Barnyardgrass [11, 15]: 10; Plant response rating, Barnyardgrass [11, 16]: 0; Plant response rating, Barnyardgrass [11, 17]: 20; Plant response rating, Barnyardgrass [11, 18]: 20; Plant response rating, Kochia [12, 15]: 70; Plant response rating, Kochia [12, 16]: 20; Plant response rating, Kochia [12, 17]: 90; Plant response rating, Kochia [12, 18]: 20; Plant response rating, Galium ([13]; 31 g ai/ha, Postemergence): 70; Plant response rating, Galium ([13]; 125 g ai/ha, postemergence): 100; Plant response rating, Blackgrass ([14]; 31 g ai/ha, Postemergence): 10; Plant response rating, Blackgrass ([14]; 125 g ai/ha, postemergence): 40"
Cn1cnc(-c2ccccc2Oc2ncc(Cl)cn2)n1 [Compound 115],0,0,0,0,0,0,0,0,0,0,0,0,0,0,0,0,0,0,0,0,"Plant response rating, Ryegrass, Italian [10, 17]: 0; Plant response rating, Barnyardgrass [11, 15]: 0; Plant response rating, Barnyardgrass [11, 16]: 0; Plant response rating, Barnyardgrass [11, 17]: 0; Plant response rating, Barnyardgrass [11, 18]: 0; Plant response rating, Kochia [12, 15]: 0; Plant response rating, Kochia [12, 16]: 0; Plant response rating, Kochia [12, 17]: 0; Plant response rating, Kochia [12, 18]: 0; Plant response rating, Galium ([13]; 31 g ai/ha, Postemergence): 0; Plant response rating, Galium ([13]; 125 g ai/ha, postemergence): 0; Plant response rating, Blackgrass ([14]; 31 g ai/ha, Postemergence): 0; Plant response rating, Blackgrass ([14]; 125 g ai/ha, postemergence): 0"
